Legend:
ICR mice = experiment: Hypoglycemic activity test; type: in vivo; conditions: statement in words in the description
Protocol: Using male 7- to 9-week-old ICR mice (Charles River Laboratories Japan), the effect of each test compound on the blood glucose levels was observed. Specifically, each compound was dissolved in a 60:40 mixture of Gelucire44/14 (Gatefosse) and PEG400 and was orally administered to the animals after a 2-hour fasting period (30 mg/kg, 10 mL/kg). Using a tube coated with dipotassium ethylenediamine tetraacetate, blood samples were collected from the tail vein immediately before administration (Pre-value), and 0.5, 2 and 4 hours after administration. The blood samples were centrifuged (4° C., 3,600 g, 3 min) to obtain plasma samples.
Each sample was diluted 5-fold with physiological saline and the blood glucose level was measured using glucose CII-test Wako (Wako Pure Chemical Industries). 10 μL each of one of the samples, physiological saline and a 100 mg/dL standard glucose solution (200 mg/dL standard glucose solution diluted two-fold with physiological saline) were placed in each well of a 96-well flat plate. 150 μL of a color-forming solution was added to each well and the plate was left at 37° C. for 5 min to allow the solution to develop color. Using a Lucy2 luminescence reader (Aloka), the measurements were taken at OD=492 nm. The decrease in the sigma glucose (mean decrease in the glucose levels at each blood collection point relative to the Pre-value) was determined from the decrease in the glucose level at each blood collection point relative to the Pre-value.

[1] = In vivo pharmacokinetics test (oral bioavailability); design: species or system mice; conditions: male, ICR, mouse, plasma, 2 μmol/kg
Protocol: Using male 6-week-old ICR mice (Charles River Laboratories Japan), the oral bioavailability of each test compound was evaluated. Specifically, each test compound was dissolved in dimethylsulfoxide (DMSO, Sigma) and the solution was added to a 1/15 M aqueous solution of sodium dihydrogen phosphate (Wako Pure Chemical Industries) to a concentration of 200 μM. DMSO was added to a final concentration of 30%. The resulting solution was administered to animals. As an intravenous injection group, a group of ICR mice, fasted overnight, were injected in their tail veins with the test compound solution (1 μmol/kg, 5 mL/kg). 5, 15 and 30 minutes after and 1, 2, 4, 8 and 24 hours after the intravenous administration, blood samples were collected from the eyeground of each animal using a heparin-coated capillary tube. […] 10 μL of the separated plasma was diluted with 100 μL of physiological saline and 10 μL of dimethylsulfoxide (sigma) and analyzed by a liquid chromatography-equipped triple quadrupole mass spectrometer (API-3000, Applied Biosystems) for the plasma concentration of unchanged product. The area under the plasma concentration-time curve (AUC) was determined by the trapezoidal method. The bioavailability of a test compound was determined by dividing the average AUC of the oral administration group corrected for the dose by the average AUC of the intravenous administration group.

[2] = In vitro liver microsome metabolic stability test, Method 1, human; type: in vitro ADME; conditions: microsomes
Protocol: (§1) In a glass test tube, each test compound was incubated with a solution containing liver microsomes of human (Xenotech) or murine (originally prepared from male 7-week-old ICR mice; Charles River Laboratories Japan) origin at 37° C. for 5 min to evaluate the metabolic stability of the compound. The incubation mixture contained 100 mM potassium phosphate buffer (pH 7.4, Wako Pure Chemical Industries), 3 mM MgCl2 (Wako Pure Chemical Industries), 5 mM glucose-6-phosphate (Roche), 1 mM EDTA (Tokyo Chemical Industry), 1 I.U. glucose 6-phosphate dehydrogenase (Roche) and 1 mg/mL liver microsome. A test compound was dissolved in DMSO and the solution was added to the reaction mixture to a final concentration of 1 μM. The metabolic process was initiated by the addition of an NADPH (Roche) solution to a final concentration of 1 mM and was terminated after 5 min by the addition of an equal volume of acetonitrile (Fischer). After termination of the process, the supernatant was separated by centrifugation and analyzed by a liquid chromatography-equipped mass spectrometer (SHIMADZU 2010A, Shimadzu) for the concentration of unchanged product.

[3] = In vitro liver microsome metabolic stability test, Method 1, murine; type: in vitro ADME, mice; conditions: mouse, microsomes
Protocol: as §1

in vitro = conditions: microsomes, pH 7.4
Protocol: In a glass test tube, each test compound was incubated with a solution containing liver microsomes of human (Xenotech) or murine (originally prepared from male 7-week-old ICR mice; Charles River Laboratories Japan) origin at 37° C. for 25 min to evaluate the metabolic stability of the compound. The incubation mixture contained 100 mM potassium phosphate buffer (pH 7.4, Wako Pure Chemical Industries), 3 mM MgCl2 (Wako Pure Chemical Industries), 5 mM glucose-6-phosphate (Roche), 1 mM EDTA (Tokyo Chemical Industry), 1 I.U. glucose 6-phosphate dehydrogenase (Roche) and 0.2 mg/mL liver microsome. A test compound was dissolved in DMSO and the solution was added to the reaction mixture to a final concentration of 1 μM. The metabolic process was initiated by the addition of an NADPH (Roche) solution to a final concentration of 1 mM and was terminated after 25 min by the addition of an equal volume of acetonitrile (Fischer). After termination of the process, the supernatant was separated by centrifugation and analyzed by a liquid chromatography-equipped mass spectrometer (SHIMADZU 2010A, Shimadzu) for the concentration of unchanged product.

CS(=O)(=O)c1ccc([C@H](CC2CC(F)C(F)C2)C(=O)Nc2nccs2)cc1 (single isomer, unassigned; (+)) [compound 2, (+)-3-[(1α,3α,4α)-3,4-difluorocyclopentyl]-2-(4-(methylsulfonyl)phenyl)-N-(thiazole-2-yl)propionamide]
hypoglycemic activity (ICR mice): do not exhibit high hypoglycemic activity

CS(=O)(=O)c1ccc(C(CC2CC(F)C(F)C2)C(=O)Nc2nccs2)cc1 (single isomer, unassigned; (+)) [compound 8, (+)-3-[(1β,3α,4α)-3,4-difluorocyclopentyl]-2-(4-(methylsulfonyl)phenyl)-N-(thiazole-2-yl)propionamide]
hypoglycemic activity (ICR mice): do not exhibit high hypoglycemic activity

CS(=O)(=O)c1ccc(C(C[C@H]2C[C@@H](F)[C@@H](F)C2)C(=O)Nc2nccs2)cc1 (single isomer, unassigned; (-)) [Compound No. 1, (−)-3-[(1α,3α,4α)-3,4-difluorocyclopentyl]-2-(4-(methylsulfonyl)phenyl)-N-(thiazole-2-yl)propionamide]
bioavailability [1]: ≥ 50%
microsomal CLint at 1 μM ([2]; pH 7.4): ≤ 60 µL/min/mg
microsomal CLint at 1 μM ([3]; male, ICR, pH 7.4): ≤ 60 µL/min/mg
microsomal CLint at 1 μM (in vitro; human): ≤ 50 µL/min/mg
microsomal CLint at 1 μM (in vitro; male, ICR, mouse): ≤ 50 µL/min/mg

Cn1ccc(NC(=O)C(CC2CC(F)C(F)C2)c2ccc(S(C)(=O)=O)cc2)n1 (single isomer, unassigned; (-)) [compound 3, (−)-3-[(1α,3α,4α)-3,4-difluorocyclopentyl]-2-(4-(methylsulfonyl)phenyl)-N-(1-methylpyrazole-3-yl)propionamide]
metabolic clearance [2]: ≤ 0.06 mL/min/mg protein
metabolic clearance [3]: ≤ 0.06 mL/min/mg protein

CS(=O)(=O)c1ccc(C(CC2CC(F)C(F)C2)C(=O)Nc2nccs2)cc1 (single isomer, unassigned; (-)) [compound 7, (−)-3-[(1β,3α,4α)-3,4-difluorocyclopentyl]-2-(4-(methylsulfonyl)phenyl)-N-(thiazole-2-yl)propionamide]
hypoglycemic activity (ICR mice): do not exhibit high hypoglycemic activity

Source: patent US8173649B2, “Glucokinase activator” (Kyorin Pharmaceutical Co., Ltd., priority 2006, dated 2012)
